Assay results: patent US20240216344A1, “THIAZOLIDINEDIONE ANALOGS FOR THE TREATMENT OF NAFLD AND METABOLIC DISEASES” (Cirius Therapeutics, Inc., priority 2019, published 2024)
Read-outs that look alike come from different tables or passages of the source.

Tests used:
[1] = test system: patients with NASH; details: cited from earlier work
[2] = test system: patients with NASH; details: cited from earlier work; remark: listed apart in the source
[3] = test system: patients with NASH; test: Meta-analysis of 17 NASH clinical trials: change from baseline in LFTs and biomarkers by study arm, composite outcome; type: in vivo, human; details: 17 NASH clinical trials
Experimental: Meta-regressions of NASH clinical trials were performed to examine associations between biomarker and histological changes within treatment groups, and to additionally examine associations between treatment effects on biomarkers and on liver histology. Trials that met the following criteria were included: • Randomized controlled clinical trial • Paired biopsies performed at baseline and follow-up, scored using the NASH CRN system.
• Published results at baseline, follow-up, or changes from baseline for any the following liver injury markers or biomarkers: alanine aminotransferase (ALT), aspartate aminotransferase (AST), alkaline phosphatase, hemoglobin A1c (HbA1c), gamma-glutamyltransferase (GGT), insulin, cytokeratin-18 (CK-18), or Enhanced Liver Fibrosis (ELF) score. Variables selected were based on variables whose change was commonly reported in multiple studies. • Changes in histological scores for ballooning, inflammation, steatosis, and fibrosis, or the pre-determined endpoints of NASH resolution without worsening fibrosis or improvement in fibrosis with no worsening of NASH.
All results from a search of PubMed for the keywords (“nonalcoholic steatohepatitis” or “non-alcoholic steatohepatitis”) and (“clinical trial” or “randomized”) and filtered for “Clinical Trial” were reviewed. EudraCT and ClinicalTrials.gov were searched for the keyword “nonalcoholic steatohepatitis” with results further filtered for phase 2 or 3, interventional, terminated or completed trials. These three sources returned 265 (PubMed), 153 (ClinicalTrials.gov), and 56 (EudraCT) results, which were each individually reviewed for inclusion in the analysis. Data extracted by one analyst from each source that included means and SDs at baseline, end of study, and changes from baseline to end of study for continuous variables were verified and corrected by a second analyst. Where SDs were not available, any provided estimate of variation was used to derive the SD where possible; a plot-digitizer program was used where data were presented in figures only. Data for dichotomous endpoints were extracted as the number of subjects with the event and corresponding sample size.
Random effects weighted least squares meta-regressions with inverse variance weighting were used to examine the association of changes in ALT, AST, CK-18, HbA1c, fasting insulin levels, ELF, alkaline phosphatase and GGT with biopsy outcomes. CK-18[M30] was measured in all studies except EMMINENCE where CK-18[M651 was reported. These associations were assessed at an individual cohort level (within treatment group), as well as based on the treatment effect. Percent change from baseline in liver injury makers and biomarkers was used as the predictor when examining the associations in the individual cohorts with outcomes while the treatment ratio, the ratio of active to placebo with respect to the relative changes from baseline, was used as the predictor when assessing the association with the treatment effect on outcomes. Standardized mean changes (mean/SD) or standardized mean treatment differences (mean difference/pooled SD) were used for continuous outcomes and Freeman-Tukey double arcsine transformed proportions or log odds ratios were used for dichotomous outcomes. Meta-regression results were computed using the metafor package available in R. P-values <0.05 were considered statistically significant.
From the meta-regression results, ranks for the association with responses and treatment effects for each histologic outcome (changes in ballooning, inflammation, steatosis, and fibrosis; NASH resolution without worsening of fibrosis, and fibrosis improvement without worsening of NAS) were assigned across seven biomarkers (AST, GGT, HbA1c, insulin, CK-18, ELF, and alkaline phosphatase) for both the slope and the mediator p-value (ranks 1-7, with 7 assigned to the biomarker with the greatest slope or lowest p-value). An average rank across all outcomes was then assigned to each biomarker. […]

[4] = biological target: T1, PPARγ (Homo sapiens, UniProt P37231); test: Relative binding affinity for PPARγ (FIG. 7)
T1 sequence (P37231 1-505): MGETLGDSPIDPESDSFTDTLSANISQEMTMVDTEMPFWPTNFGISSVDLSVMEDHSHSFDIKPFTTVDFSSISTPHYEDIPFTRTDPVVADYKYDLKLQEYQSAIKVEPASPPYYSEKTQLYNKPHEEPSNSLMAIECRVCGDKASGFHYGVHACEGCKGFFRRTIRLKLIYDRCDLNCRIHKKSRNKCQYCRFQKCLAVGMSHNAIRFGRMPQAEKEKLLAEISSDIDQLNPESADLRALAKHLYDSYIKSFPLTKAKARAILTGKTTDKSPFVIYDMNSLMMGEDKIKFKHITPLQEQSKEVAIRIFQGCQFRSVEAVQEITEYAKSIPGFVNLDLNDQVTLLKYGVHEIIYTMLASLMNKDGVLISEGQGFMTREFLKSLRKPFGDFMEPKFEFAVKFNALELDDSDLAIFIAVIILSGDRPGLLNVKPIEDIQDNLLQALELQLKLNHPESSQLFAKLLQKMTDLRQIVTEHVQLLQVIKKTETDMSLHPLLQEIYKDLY

[5] = Exposure of parent and metabolite; bioavailability of potassium salt vs free acid; details: in vivo
[6] = biological target: T2, MPC (Homo sapiens, UniProt O95563+Q9Y5U8); test: Relative binding affinity for the MPC (FIG. 8)
T2 sequence (Q9Y5U8 1-109): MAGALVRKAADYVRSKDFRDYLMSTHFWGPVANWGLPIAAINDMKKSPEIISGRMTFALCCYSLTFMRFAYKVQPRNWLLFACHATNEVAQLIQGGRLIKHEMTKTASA
T2 sequence (O95563 1-127): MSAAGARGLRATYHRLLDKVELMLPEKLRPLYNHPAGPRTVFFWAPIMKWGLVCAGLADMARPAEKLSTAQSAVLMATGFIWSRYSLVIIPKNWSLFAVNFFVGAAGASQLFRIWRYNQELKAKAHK

[7] = MADRIGAL, 80 mg, follow-up 9 months
[8] = MADRIGAL trial, Resmetirom 80 mg
[9] = ARREST, 400 mg, follow-up 12 months
[10] = ARREST, 600 mg, follow-up 12 months
[11] = GOLDEN, 80 mg, follow-up 12 months
[12] = GOLDEN, 120 mg, follow-up 12 months
[13] = GOLDEN trial, Elafibranor 120 mg
[14] = ENCORE-HF trial, Emricasan 5 mg
[15] = ENCORE-HF trial, Emricasan 50 mg
[16] = GEORGESCU, 80 mg, follow-up 20 months
[17] = GEORGESCU trial, Valsartan 80 mg
[18] = LEUSCHNER, 23-28 mg/kg/day, follow-up 18 months
[19] = LEUSCHNER trial, UDCA 23-28 mg/kg/day
[20] = PIVENS, Vitamin E arm, follow-up 22 months
[21] = CENTAUR, 150 mg, follow-up 12 months
[22] = GEORGESCU, 20 mg, follow-up 20 months
[23] = GEORGESCU trial, Telmisartan 20 mg

## CC(C)c1cc(Oc2c(Cl)cc(-n3nc(C#N)c(=O)[nH]c3=O)cc2Cl)n[nH]c1=O [Resmetirom]
[1]; [7]
  % Change from Baseline ALT: −30.80%
  % Change from Baseline AST: −21.08%
  % Change from Baseline Alk Phos: 7.85%
  % Change from Baseline CK-18: −35.15%
  % Change from Baseline ELF: −7.17%
  % Change from Baseline GGT: −18.76%
  % Change from Baseline HbA1c: 0.63%
[2]; [8]
  Fibrosis Improvement: 21/73
  NASH Resolution: 18/73

## CCCCCCCCCCCCCCCCCCCC(=O)N[C@H]1CC[C@@]2(C)[C@@H](C1)C[C@@H](O)[C@@H]1[C@@H]2C[C@H](O)[C@]2(C)[C@@H]([C@H](C)CCC(=O)O)CC[C@@H]12 [Aramachol, reference compound]
[1]; [9]
  % Change from Baseline ALT: −18.06%
  % Change from Baseline HbA1c: −0.62%
[1]; [10]
  % Change from Baseline ALT: −32.02%
  % Change from Baseline HbA1c: −1.79%
[3]
  treatment effect on the surrogate endpoint (weighted average of changes in AST, CK-18, HbA1c): largest treatment effects
[2]; ARREST trial, Aramchol 400 mg
  Fibrosis Improvement: 17/80
  NASH Resolution: 6/80
[2]; ARREST trial, Aramchol 600 mg
  Fibrosis Improvement: 23/78
  NASH Resolution: 13/78

## CSc1ccc(C(=O)/C=C/c2cc(C)c(OC(C)(C)C(=O)O)c(C)c2)cc1 [Elafibranor]
[1]; [11]
  % Change from Baseline ALT: −9.72%
  % Change from Baseline AST: −16.87%
  % Change from Baseline Alk Phos: −25.87%
  % Change from Baseline GGT: −34.54%
[1]; [12]
  % Change from Baseline ALT: −19.75%
  % Change from Baseline AST: −30.22%
  % Change from Baseline Alk Phos: −26.41%
  % Change from Baseline GGT: −41.68%
[2]; GOLDEN trial, Elafibranor 80 mg
  NASH Resolution: 12/93
[2]; [13]
  Change from Baseline, mean: Ballooning: −0.07
  Change from Baseline, mean: Fibrosis: −0.07
  Change from Baseline, mean: Inflammation: −0.32
  Change from Baseline, mean: Steatosis: 0.02
  NASH Resolution: 17/89

## C[C@H](NC(=O)C(=O)Nc1ccccc1C(C)(C)C)C(=O)N[C@@H](CC(=O)O)C(=O)COc1c(F)c(F)cc(F)c1F [Emricasan]
[1]; ENCORE-HF, 5 mg
  % Change from Baseline ALT: −35.28%
  % Change from Baseline AST: −18.47%
  % Change from Baseline CK-18: −36.86%
[1]; ENCORE-HF, 50 mg
  % Change from Baseline ALT: −45.17%
  % Change from Baseline AST: −19.83%
  % Change from Baseline CK-18: −45.07%
[2]; [14]
  Change from Baseline, mean: Ballooning: 0.04
  Change from Baseline, mean: Fibrosis: 0.41
  Change from Baseline, mean: Inflammation: −0.11
  Change from Baseline, mean: Steatosis: −0.20
  Fibrosis Improvement: 12/107
  NASH Resolution: 4/107
[2]; [15]
  Change from Baseline, mean: Ballooning: 0.13
  Change from Baseline, mean: Fibrosis: 0.36
  Change from Baseline, mean: Inflammation: 0.09
  Change from Baseline, mean: Steatosis: −0.27
  Fibrosis Improvement: 13/106
  NASH Resolution: 7/106

## COc1cccc(C(O)COc2ccc(CC3SC(=O)NC3=O)cc2)c1 (stereo not drawn) [primary metabolite of MSDC-0602]
[4]
  reduction in binding affinity for PPARγ compared to pioglitazone: more than fifty-fold
[5]
  share of the combined exposure: more than 90%
[6]
  binding to the MPC: maintain, and in some cases improve

## CCCCC(=O)N(Cc1ccc(-c2ccccc2-c2nnn[nH]2)cc1)[C@H](C(=O)O)C(C)C [Valsartan]
[1]; [16]
  % Change from Baseline ALT: −23.22%
  % Change from Baseline AST: −18.82%
  % Change from Baseline GGT: −20.60%
[2]; [17]
  Change from Baseline, mean: Ballooning: −0.11
  Change from Baseline, mean: Fibrosis: −0.31
  Change from Baseline, mean: Inflammation: 0.08
  Change from Baseline, mean: Steatosis: −0.34

## C[C@H](CCC(=O)O)[C@H]1CC[C@H]2[C@@H]3[C@@H](O)C[C@@H]4C[C@H](O)CC[C@]4(C)[C@H]3CC[C@]12C [UDCA]
[1]; [18]
  % Change from Baseline ALT: −40.55%
  % Change from Baseline AST: −27.95%
  % Change from Baseline Alk Phos: −6.376%
  % Change from Baseline GGT: −59.94%
[2]; [19]
  Change from Baseline, mean: Ballooning: −0.16
  Change from Baseline, mean: Inflammation: −0.51
  Change from Baseline, mean: Steatosis: −0.55

## CC(C)c1cc(Oc2c(Cl)cc(-n3nc(C#N)c(=O)[nH]c3=O)cc2Cl)n[nH]c1=O [resmetiron, reference compound]
[3]
  treatment effect on the surrogate endpoint (weighted average of changes in AST, CK-18, HbA1c): largest treatment effects

## Vitamin E
[1]; [20]
  % Change from Baseline ALT: −43.02%
  % Change from Baseline AST: −36.10%
  % Change from Baseline Alk Phos: −12.08%
  % Change from Baseline GGT: −25.00%
  % Change from Baseline Insulin: 2.73%
[2]; PIVENS trial, Vitamin E
  Change from Baseline, mean: Ballooning: −0.30
  Change from Baseline, mean: Fibrosis: −0.30
  Change from Baseline, mean: Inflammation: −0.60
  Change from Baseline, mean: Steatosis: −0.70
  NASH Resolution: 30/84

## CCCCOCCOc1ccc(-c2ccc3c(c2)/C=C(/C(=O)Nc2ccc([S@@+]([O-])Cc4cncn4CCC)cc2)CCCN3CC(C)C)cc1 [Cenicriviroc]
[1]; [21]
  % Change from Baseline ALT: 11.23%
  % Change from Baseline AST: 11.67%
  % Change from Baseline Alk Phos: 1.24%
  % Change from Baseline CK-18: −12.34%
  % Change from Baseline GGT: 2.68%
  % Change from Baseline HbA1c: −0.75%
  % Change from Baseline Insulin: 2.14%
[2]; CENTAUR trial, Cenicriviroc 150 mg
  Fibrosis Improvement: 29/145

## CCCc1nc2c(C)cc(-c3nc4ccccc4n3C)cc2n1Cc1ccc(-c2ccccc2C(=O)O)cc1 [Telmisartan]
[1]; [22]
  % Change from Baseline ALT: −30.29%
  % Change from Baseline AST: −34.64%
  % Change from Baseline GGT: −2.83%
[2]; [23]
  Change from Baseline, mean: Ballooning: −0.58
  Change from Baseline, mean: Fibrosis: −0.75
  Change from Baseline, mean: Inflammation: −0.36
  Change from Baseline, mean: Steatosis: −0.50
